Assay results reported in patent US20090036355A1, “Antisense Modulation of PTP1B Expression” (priority 2004, published 2009).
Where two headings read alike, the source gives them in different places.

Key:
ZDF rats [1] = test: ZDF rats: comparison to rosiglitazone and metformin (glucose, HbA1c, meal tolerance, body weight); assay type: in vivo, rat
Experimental: A saline treated group of lean rats was also included in the study. Treatment with all drugs was initiated before the rats became frankly diabetic, which occurs at about 8 weeks of age. Plasma glucose levels were measured 3 and 5 weeks after treatment initiation. Body weight was measured once every week; in addition, HbA, levels were measured at the end of the study by HPLC. A meal tolerance test was also performed after 4 weeks of treatment.
At the end of 5 weeks, some rats were sacrificed and the liver and epididymal fat pads were removed. The rest of the animals (n=4/group) were examined for changes in plasma glucose levels after cessation of treatment. Glucose measurements during the recovery phase were made 10 days and 5 weeks after stopping treatment. Tissue extracts were subjected to Western blot analysis to measure changes in PTP1B protein levels.

[2] = Combination with metformin in ZDF rats: hypoglycemia, AST/ALT, lipids, plasma lactate; assay type: in vivo, rat; settings: after 4 weeks of treatment, metformin 100, 300 or 500 mg/kg per day, ISIS 113715 12.5 mg/kg twice a week
Experimental: 500 mg/kg is the maximally effective dose that can be tolerated by these rats.
There was no significant change in AST/ALT, plasma triglyceride or plasma cholesterol levels in any animal group. Because of the risk of lactic acidosis associated with metformin treatment, plasma lactate levels were measured.

ZDF rats [3] = test: Combination with metformin in ZDF rats: plasma glucose; assay type: in vivo, rat; settings: 4 weeks, metformin 100, 300 or 500 mg/kg per day, ISIS 113715 12.5 mg/kg twice a week
Experimental: 500 mg/kg is the maximally effective dose that can be tolerated by these rats. Plasma glucose was measured at week 0 (before treatment) and after weeks 1, 2 and 4 of treatment.

[4] = AST/ALT and plasma cholesterol in aged ZDF rats; settings: weeks 1, 2, 3, 4 and 5
[5] = tested on: T-cell phosphatase (TC-PTPase, PTPN2); test: TC-PTPase protein in HEPG2 cells (Western blot); assay type: cell-based, human; settings: 150 nM
Experimental: (§1) There is a high degree of homology between PTP1B and T-cell phosphatase (TC-PTPase, PTPN2), particularly in the catalytic domain. This may present problems in design of small molecule drugs specific for PTP1B. […] HEPG2 human hepatocellular liver carcinoma cells (ATCC, Manassas Va.) are routinely maintained in minimum essential medium (Eagle) with 2 mM L-glutamine and Earle's BSS adjusted to contain 1.5 g/L sodium bicarbonate, 0.1 mM non-essential amino acids, and 1.0 mM sodium pyruvate, […]; fetal bovine serum.
(§2) Levels of PTP1B and TC-PTPase protein were measured by Western blot using mouse monoclonal antibodies to PTP1B (AB-1) and TC-PTPase (AB-1) (CalBiochem/Oncogene sciences, EMD Biosciences, Inc., San Diego Calif.), which specifically identified human target proteins and were used at 0.25 ug/ml. Results were expressed as percent of control (no oligo treatment).

PTP1B protein = PTP1B protein levels in ZDF rats (Western blot); assay type: in vivo, rat; settings: compared to saline-treated animals
Experimental: (§3) ZDF/GmiCrl-fa/fa (ZDF) male rats were purchased from Charles River Laboratories (Wilmington, Mass., USA). Six week old ZDF male rats were injected intraperitoneally with oligonucleotides at a dose of 25 mg/kg two times per week for four weeks. […] Saline-injected animals also serve as controls.
PTP1B protein levels were measured by Western blot analysis.

ZDF rats [6] = test: Intraperitoneal glucose tolerance test (IPGTT) in ZDF rats; assay type: in vivo, rat
Experimental: as §3
An intraperitoneal glucose tolerance test (IPGTT) was also performed. Rats received intraperitoneal injections of glucose, and the blood glucose and insulin levels are measured before the glucose challenge and at intervals over 2 hours. The blood glucose levels (in mg/dL) are shown below in Table 1: […]

[7] = rat, in vivo
PTP1B = PTP1B protein in HEPG2 cells (Western blot); assay type: cell-based, human; settings: 150 nM
Experimental: as §1, §2

ZDF rats [8] = test: Fed plasma glucose in Zucker diabetic fatty (ZDF) rats; assay type: in vivo, rat
Excerpt: The leptin receptor deficient Zucker diabetic fatty (ZDF) rat is another useful model for the investigation of type 2 diabetes. Diabetes develops spontaneously in these male rats at ages 8-10 weeks, and is associated with hyperphagia, polyuria, polydipsia, and impaired weight gain, symptoms which parallel the clinical symptoms of diabetes (Phillips M S, et al., 1996, Nat Genet. 13, 18-19).
as §3

CN(C)C(=N)N=C(N)N [Metformin]
Blood glucose (mg/dL) (approx.) (ZDF rats [1]; 31 day washout, saline 320): ~330 mg/dL | Blood glucose (mg/dL) (approx.) (ZDF rats [1]; Week 3 of dosing, saline 320): ~180 mg/dL | body weight (ZDF rats [1]; after treatment): remained unchanged | plasma lactate levels [2]: dose-dependent increase | effect on blood glucose over time (ZDF rats [3]): lost over time

CN(CCOc1ccc(CC2SC(=O)NC2=O)cc1)c1ccccn1 (stereo not drawn) [Rosiglitazone]
Blood glucose (mg/dL) (approx.) (ZDF rats [1]; 10 day washout, saline 310): ~260 mg/dL | Blood glucose (mg/dL) (approx.) (ZDF rats [1]; 31 day washout, saline 320): ~270 mg/dL | Blood glucose (mg/dL) (approx.) (ZDF rats [1]; Pre-treatment, ISIS 113715 50 mg/kg/week IP, rosiglitazone 10 mg/kg/day, metformin 800 mg/kg/day orally, saline 140): ~140 mg/dL | Blood glucose (mg/dL) (approx.) (ZDF rats [1]; Week 3 of dosing, saline 320): ~110 mg/dL | AST/ALT and plasma cholesterol levels [4]: no significant effects

ISIS 141923: CCTTCCCTGAAGGTTCCTCC; SEQ ID NO: 20, six-mismatch control of ISIS 113715, negative oligonucleotide control (chemistry not given here)
TC-PTPase levels reduced by [5]: reduced neither | PTP1B protein levels decreased by (PTP1B protein): 10% | Blood glucose after IPGTT, Glucose mg/dL ± SEM (ZDF rats [6]; 0 min): 330 ± 39 mg/dL | Insulin excursion after IPGTT, Insulin (ng/ml ± SEM) (ZDF rats [6]; 0 min): 2.2 ± .30 ng/mL | Blood glucose after IPGTT, Glucose mg/dL ± SEM (ZDF rats [6]; 5 min): 543 ± 43 mg/dL | Insulin excursion after IPGTT, Insulin (ng/ml ± SEM) (ZDF rats [6]; 5 min): 2.3 ± .84 ng/mL | Blood glucose after IPGTT, Glucose mg/dL ± SEM (ZDF rats [6]; 15 min): 703 ± 60 mg/dL | Insulin excursion after IPGTT, Insulin (ng/ml ± SEM) (ZDF rats [6]; 15 min): 4.0 ± .22 ng/mL | Blood glucose after IPGTT, Glucose mg/dL ± SEM (ZDF rats [6]; 30 min): 791 ± 52 mg/dL | Insulin excursion after IPGTT, Insulin (ng/ml ± SEM) (ZDF rats [6]; 30 min): 4.2 ± .37 ng/mL | Blood glucose after IPGTT, Glucose mg/dL ± SEM (ZDF rats [6]; 60 min): 705 ± 51 mg/dL | Insulin excursion after IPGTT, Insulin (ng/ml ± SEM) (ZDF rats [6]; 60 min): 2.4 ± .66 ng/mL | Blood glucose after IPGTT, Glucose mg/dL ± SEM (ZDF rats [6]; 120 min): 594 ± 28 mg/dL | Insulin excursion after IPGTT, Insulin (ng/ml ± SEM) (ZDF rats [6]; 120 min): 1.7 ± .60 ng/mL | Insulin AUC after IPGTT (ZDF rats [6]; saline approximately 300): ~320 | Glucose excursion (AUC) after IPGTT (ZDF rats [6]; saline approximately 72,000): approximately 80,000 | AST/ALT and plasma cholesterol levels [7]: no significant effects | PTP1B protein levels reduced by (PTP1B): reduced neither | fed plasma glucose levels (ZDF rats [8]; 25 mg/kg i.p. two times per week, week 0, saline 302±44): approximately 306±59 mg/dL | fed plasma glucose levels (ZDF rats [8]; week 1, saline 400±17): ~391 ± 35 mg/dL | fed plasma glucose levels (ZDF rats [8]; week 2, saline 441±13): ~402 ± 37 mg/dL | fed plasma glucose levels (ZDF rats [8]; week 3, saline 453±26): ~411 ± 27 mg/dL | fed plasma glucose levels (ZDF rats [8]; week 4, saline 425±10): ~392 ± 11 mg/dL
